Reference: patent US20240299359A1, “PHARMACEUTICAL COMPOSITION FOR ANIMALS CONTAINING 5-HYDROXY-METHYLIMIDAZOLIDINE-2,4-DIONE COMPOUND AS ACTIVE INGREDIENT” (KYONGBO PHARM. CO., LTD., priority 2021, published 2024)
Several values for one entry are separate records, joined by “and”; a condition that tells them apart may be missing. Equal values may be shown once.

Tested on: beagles
Assay: 13-week repeated oral toxicity: hematological test
Type: in vivo, beagle
Description: Fasting was conducted the day before administration (blood test date, pre), the 4th week (day 29) after administration, the 8th week (day 57) after administration, and the 13th week (day 92) after administration, and when the remaining feed was present in the feed container 3 hours after feeding on the day of fasting, it was removed.
All subjects were fasted for 16 hours and measurements were then performed pre (before administration), 4 weeks (day 29) after administration, 8 weeks (day 57) after administration, and 13 weeks (day 92) after administration. Within 3 hours after 2 to 3 ml of blood collected from the jugular vein of each subject was injected into a CBC bottle containing EDTA, RBC, HGB, HCT, RBC indices (MCV, MCH, MCHC), and platelet count and WBC differential count were measured using an automatic hematometer.

[1] = G3 500 mg/kg, repeated administration for 13 weeks, female, group mean
[2] = G3 500 mg/kg, repeated administration for 13 weeks, female, individual animals
[3] = G3 500 mg/kg, repeated administration for 13 weeks, male, group mean
[4] = G3 500 mg/kg, repeated administration for 13 weeks, male, individual animals
[5] = G4 1,000 mg/kg group, female (F10-F12, Mean), before administration (day 0)
[6] = G4 1,000 mg/kg group, female (F10-F12, Mean), before administration (day 0), mean
[7] = G4 1,000 mg/kg group, male (M10-M12, Mean), before administration (day 0)
[8] = G4 1,000 mg/kg group, male (M10-M12, Mean), before administration (day 0), mean
[9] = G4 1,000 mg/kg, repeated administration for 13 weeks, female, group mean
[10] = G4 1,000 mg/kg, repeated administration for 13 weeks, female, individual animals
[11] = G4 1,000 mg/kg, repeated administration for 13 weeks, male, group mean
[12] = G4 1,000 mg/kg, repeated administration for 13 weeks, male, individual animals

Work on CN1C(=O)NC(=O)C1O (stereo not drawn) [KBP-001, 5-hydroxy-1-methylimidazolidine-2,4-dione] yielded an MCH [1] of 23.5 pg, an MCHC [1] of 33.37 g/dL and an MCV [1] of 70.2 fL. The Retic [1] was 0.59%, the “WBC Differential Counting(%) Baso” value [1] was 0.43% and the “WBC Differential Counting(%) Eos” value [1] was 3.03%. The “WBC Differential Counting(%) Lymph” value [1] was 33.40%, the “WBC Differential Counting(%) Mono” value [1] was 4.37% and the “WBC Differential Counting(%) Neut” value [1] was 58.50%. For the same compound, the HCT [2] was 42.0% and 49.4% and 52.6%, the HGB [2] was 14.2 g/dL and 16.3 g/dL and 17.5 g/dL and the MCH [2] was 23.8 pg and 23.9 pg and 22.7 pg. The MCHC [2] was 33.7 g/dL and 33.1 g/dL and 33.3 g/dL, the MCV [2] was 70.4 fL and 72 fL and 68.2 fL and the Retic [2] was 0.84% and 0.40% and 0.53%. The “WBC Differential Counting(%) Baso” value [2] was 0.3% and 0.5% and 0.4%, the “WBC Differential Counting(%) Eos” value [2] was 3.2% and 2.8% and 3.1% and the “WBC Differential Counting(%) Lymph” value [2] was 37.9% and 30.3% and 32.0%. For the same compound, the “WBC Differential Counting(%) Mono” value [2] was 4.3% and 3.5% and 5.2%, the “WBC Differential Counting(%) Neut” value [2] was 62.4% and the HCT [3] was 48.10%. The HGB [3] was 16.27 g/dL, the MCH [3] was 23.8 pg and the MCHC [3] was 33.83 g/dL. For the same compound, the MCV [3] was 70.4 fL, the Retic [3] was 0.41% and the “WBC Differential Counting(%) Baso” value [3] was 1.10%. For the same compound, the “WBC Differential Counting(%) Eos” value [3] was 5.07%, the “WBC Differential Counting(%) Lymph” value [3] was 30.00% and the “WBC Differential Counting(%) Mono” value [3] was 7.23%. For the same compound, the “WBC Differential Counting(%) Neut” value [3] was 55.697%, the HCT [4] was 42.2% and 49.5% and 52.6% and the HGB [4] was 14.2 g/dL and 16.9 g/dL and 17.7 g/dL. The MCH [4] was 23.5 pg and 24.4 pg and 23.6 pg, the MCHC [4] was 33.7 g/dl (2×) and 34.1 g/dl and the MCV [4] was 70 fL and 71.5 fL and 69.9 fL. For the same compound, the Retic [4] was 0.54% and 0.46% and 0.23%, the “WBC Differential Counting(%) Baso” value [4] was 0.3% and 0.4% and 2.6% and the “WBC Differential Counting(%) Eos” value [4] was 3.9% and 7.5% and 3.8%. The “WBC Differential Counting(%) Lymph” value [4] was 23.4% and 27.1% and 39.5%, the “WBC Differential Counting(%) Mono” value [4] was 7.8% (2×) and 6.1% and the “WBC Differential Counting(%) Neut” value [4] was 64.3% and 56.8% and 46.8%. The HCT [5] was 47.7% and 44.4% and 48.4%, the HGB [5] was 16.1 g/dL and 14.9 g/dL and 16.2 g/dL and the MCH [5] was 22.9 pg and 23.2 pg and 22.2 pg. The MCHC [5] was 33.7 g/dL and 33.5 g/dL, the MCV [5] was 68 fL and 69.2 fL and 66.3 fL and the Retic [5] was 1.79% and 1.14% and 0.92%. The “WBC Differential Counting Baso” value [5] was 0.5% and 0.7% and 0.9%, the “WBC Differential Counting Eos” value [5] was 3.8% and 3.2% and 2.1% and the “WBC Differential Counting Lymph” value [5] was 30.9% and 31.1% and 43.6%. The “WBC Differential Counting Mono” value [5] was 4.6% and 4.0% and 5.5%, the “WBC Differential Counting Neut” value [5] was 59.3% and 60.5% and 47.3% and the HCT [6] was 39.40%. For the same compound, the HGB [6] was 13.17 g/dL, the MCH [6] was 18.4 pg and the MCHC [6] was 25.57 g/dL. For the same compound, the MCV [6] was 55.4 fL, the Retic [6] was 0.77% and the “WBC Differential Counting Baso” value [6] was 0.74%. The “WBC Differential Counting Eos” value [6] was 3.70%, the “WBC Differential Counting Lymph” value [6] was 28.17% and the “WBC Differential Counting Mono” value [6] was 4.91%. For the same compound, the “WBC Differential Counting Neut” value [6] was 46.85%, the HCT [7] was 45.1% and 46.8% and 43.2% and the HGB [7] was 15.0 g/dL and 15.6 g/dL and 14.5 g/dL. For the same compound, the MCH [7] was 22.4 pg and 22.5 pg and 21.7 pg, the MCHC [7] was 33.2 g/dL and 33.3 g/dL and 33.6 g/dL and the MCV [7] was 67.6 fL and 67.4 fL and 64.7 fL. The Retic [7] was 0.51% and 0.65% and 0.56%, the “WBC Differential Counting Baso” value [7] was 0.8% and 0.4% and 0.7% and the “WBC Differential Counting Eos” value [7] was 3.5% and 3.9% and 4.8%. For the same compound, the “WBC Differential Counting Lymph” value [7] was 34.8% and 31.7% and 35.5%, the “WBC Differential Counting Mono” value [7] was 6.5% and 7.8% and 4.5% and the “WBC Differential Counting Neut” value [7] was 53.8% and 55.9% and 54.0%. The HCT [8] was 39.19%, the HGB [8] was 13.07 g/dL and the MCH [8] was 18.2 pg. The MCHC [8] was 27.30 g/dL, the MCV [8] was 54.9 fL and the Retic [8] was 0.74%. For the same compound, the “WBC Differential Counting Baso” value [8] was 0.78%, the “WBC Differential Counting Eos” value [8] was 3.68% and the “WBC Differential Counting Lymph” value [8] was 28.23%. For the same compound, the “WBC Differential Counting Mono” value [8] was 5.10%, the “WBC Differential Counting Neut” value [8] was 46.56% and the HCT [9] was 41.40%. It also gave an HGB [9] of 14.00 g/dL, an MCH [9] of 23.3 pg and an MCHC [9] of 33.83 g/dL. For the same compound, the MCV [9] was 68.8 fL, the Retic [9] was 0.36% and the “WBC Differential Counting(%) Baso” value [9] was 0.40%. For the same compound, the “WBC Differential Counting(%) Eos” value [9] was 2.07%, the “WBC Differential Counting(%) Lymph” value [9] was 36.50% and the “WBC Differential Counting(%) Mono” value [9] was 4.57%. For the same compound, the “WBC Differential Counting(%) Neut” value [9] was 55.93%, the HCT [10] was 39.9% (2×) and 44.4% and the HGB [10] was 13.4 g/dL and 13.6 g/dL and 15.0 g/dL. The MCHC [10] was 33.5 g/dL and 34.2 g/dL and 33.8 g/dL, the MCV [10] was 69.5 fL and 68.2 fL and 68.7 fL and the Retic [10] was 0.53% and 0.27% and 0.28%. For the same compound, the “WBC Differential Counting(%) Baso” value [10] was 0.4% and 0.5% and 0.3%, the “WBC Differential Counting(%) Eos” value [10] was 3.1% and 0.8% and 2.3% and the “WBC Differential Counting(%) Lymph” value [10] was 31.4% and 42.6% and 35.8%. For the same compound, the “WBC Differential Counting(%) Mono” value [10] was 3.9% (2×) and 5.9%, the “WBC Differential Counting(%) Neut” value [10] was 60.7% and 51.8% and 55.3% and the HCT [11] was 46.33%. The HGB [11] was 15.80 g/dL, the MCH [11] was 23.4 pg and the MCHC [11] was 34.07 g/dL. The MCV [11] was 68.6 fL, the Retic [11] was 0.31% and the “WBC Differential Counting(%) Baso” value [11] was 0.43%. For the same compound, the “WBC Differential Counting(%) Eos” value [11] was 4.73%, the “WBC Differential Counting(%) Lymph” value [11] was 32.17% and the “WBC Differential Counting(%) Mono” value [11] was 6.07%. For the same compound, the “WBC Differential Counting(%) Neut” value [11] was 56.33%, the HCT [12] was 43.1% and 47.6% and 48.3% and the HGB [12] was 14.4 g/dL and 16.9 g/dL and 16.1 g/dL. For the same compound, the MCH [12] was 23.3 pg and 24.5 pg and 22.3 pg, the MCHC [12] was 33.3 g/dL and 35.5 g/dL and 33.4 g/dL and the MCV [12] was 70 fL and 69.1 fL and 66.8 fL. For the same compound, the Retic [12] was 0.27% and 0.32% and 0.33%, the “WBC Differential Counting(%) Baso” value [12] was 0.5% and 0.4% (2×) and the “WBC Differential Counting(%) Eos” value [12] was 4.0% and 4.4% and 5.8%. The “WBC Differential Counting(%) Lymph” value [12] was 33.7% and 29.5% and 33.2%, the “WBC Differential Counting(%) Mono” value [12] was 5.8% and 6.8% and 5.6% and the “WBC Differential Counting(%) Neut” value [12] was 55.7% and 58.6% and 54.7%.
